Test results published in patent US8110655B2, “Method to promote hair growth and/or delay or treat hair loss by administering a TGF-β antagonist or inhibitor” (Auxagen, Inc., priority 2006, dated 2012).
Where no end group is shown, it is not given here. PEG = not defined here

What was measured:
[1] = test system: mink lung epithelial cells; assay: Block of TGF-β-induced growth inhibition / DNA synthesis response; type: cell-based
Description: (§1) By “treating or preventing alopecia” is meant the ability to cure, reduce or prevent one or more clinical symptoms of alopecia, including, but not limited to, hair loss, cornification, scaling, uneven thickness, persistent itch, inflammation, and rapid epithelial cell turnover in the skin. Treating alopecia also includes the promotion of hair growth at the site of the hair loss. The methods of the invention also encompass promotion or stimulation of hair growth in general (e.g. to thicken naturally thin hair). […] It was also discovered that at least four consecutive amino acids comprising W(or R)XXD (wherein X is any amino acid) motif in the sequences, determines their potencies and that they block TGF-β-induced growth inhibition and TGF-β-induced expression of PAI-1 in mink lung epithelial cells and other cell types (U.S. Pat. No. 6,500,920 issued Dec. 31, 2002). As was previously disclosed by the inventors, such peptides are effective in inhibiting, ameliorating or reversing the effects of TGF-β in biological systems including but not limited to reducing scarring wounds, to prevent lung injury in adult respiratory distress syndrome (ARDS), and injuries of other tissues caused by pharmacological agents (e.g. bladder injury caused by cyclophosphamide). […]

[2] = test system: TGF-β receptors in mink lung epithelial cells; assay: Inhibition of labeled TGF-β binding to TGF-β receptors in mink lung epithelial cells; conditions: screen of seven pentacosapeptides
Description: as §1

[3] = test system: PAI-1; assay: Block of TGF-β-induced expression / transcriptional activation of PAI-1; type: cell-based, mink
Description: as §1

[4] = test system: partial-thickness pig skin burn wounds; assay: Partial-thickness porcine burn wound outcomes; type: in vivo
Method: Animals were sedated with Talazine® ([…] Zolazepam, Fort Dodge Lab, Fort Dodge, Iowa) 5 mg/kg IM. The pigs were then intubated endotracheally and maintained under a surgical plane of anesthesia with isoflurane 0.5-2.5% in room air. The flank and back hair was clipped with hair clippers and the skin was scrubbed with a povidine iodine solution. Standardized partial thickness burns were created on the animals' backs and flanks by applying a 2.5 cm by 2.5 cm, 150 gram aluminum bar preheated in hot water to 80° C. The heated bar was wiped dry just prior to application to prevent water droplets from creating a steam burn on the skin. The bar was then placed at a vertical position perpendicular to the skin's surface and applied for a period of 20 seconds with all pressure supplied by gravity. […] In order to simulate burn blister debridement and enhance the absorption of the topical agents, the necrotic epidermis was gently removed by rubbing the burn with dry gauze. Removal of the necrotic epidermis results in delayed reepithelialization, and increased scar formation^17. Twenty burns were inflicted on each of 2 pigs (evenly distributed between both side of the pigs), for a total of 40 burns. The agent used in the studies is PEG-β1^25 (SEQ ID NO: 8) This particular peptide was chosen after screening seven pentacosapeptides whose amino acids overlap and cover most of the human TGF-β1 molecule, the monomer of which has 112 amino acid residues. […] Furthermore, the chosen peptide was also shown to block the cellular responses to TGF-β1 such as DNA synthesis and transcriptional activation of PAI-1. […] TGF-β peptantagonist PEG-β1^25 in PBS was mixed with Sterile IntraSite gel from Smith and Nephew Medical, Ltd. (UK) at a ratio of 1:3 (v/v). The pigs were randomized to treatment with topical PEG-β1^25 peptantagonist (SEQ ID NO: 8) or its vehicle (carboxy methylcellulose, IntraSite Gel, Smith and Nephew, Largo, Fla.) immediately after injury and at days 3, 5, 7, 10, 14, 18, 21, and 25. A thin layer of the topical treatment was applied with a sterile metal spatula. Group randomization order was determined by drawing unlabeled forms from an opaque container. After applying the topical therapy, the burns were covered with dry non-adherent gauze ([…] Company, Mansfield, Mass.). The burned areas were then covered with a gauze bandage roll (Conform®), Kendall Healthcare Products Company, Mansfield, Mass.) and an adhesive elastic bandage (Elastoplast®, Beiersdorf-Jobst, Inc., Rutherford College, N.C.). The adhesive dressing was secured to the skin at a distance from the burns with skin staples. Animals were observed frequently for signs of pain or discomfort and treated with IM buprenorphine 0.01 mg/kg as needed. Dressing changes were performed with each application of the topical agents. At each dressing change all gauze dressings were removed and the wounds were observed and the study agent was reapplied. All burns were then re-covered with non-adherent gauze and elastic wrap as previously described. Full thickness 4-mm punch biopsies (Miltex Instrument Company Inc., Lake Success, N.Y.) were taken after 7, 10, and 14 days for blinded histopathological evaluation by a board-certified dermatopathologist masked to treatment assignment. The entire wound was excised at 28 days and submitted for histological evaluation. Digital photos were taken prior to biopsy to determine the presence of wound contraction defined as an hourglass like shape. Histopathological studies were done on formalin-fixed, alcohol-dehydrated, xylene-cleared, paraffin-embedded, hematoxylin and eosin stained 5 μm sections using conventional microscopy. The primary outcome was the percent of wounds healing with wound contraction. Secondary outcomes were percent reepithelialization, percent wound infection, and the percent of wounds with scars extending through the entire thickness of the dermis. […]

[5] = day 28, of 20 burns, full thickness scars

## PEG-β1^25: β1^25 (SEQ ID NO: 8) pegylated at the N-terminal alpha-amino group and at the epsilon-amino group ({PEG}-ANFSLGPSPYIWSLDTQYSK(PEG)VLALY; reading uncertain; listed as Homo Sapiens)
[1]
  block of cellular response to TGF-β1: DNA synthesis: block
[2]
  inhibition of binding of labeled TGF-β1 to its receptor: completely inhibited
[3]
  block of cellular response to TGF-β1: transcriptional activation of PAI-1: block
[4]; day 7, 20 burns
  Percent wound reepithelialization, day 7: 14.2 (28.8) %
[4]; day 10, 20 burns
  Percent wound reepithelialization, day 10: 46.3 (44.4) %
[4]; day 14, 20 burns
  Percent wound reepithelialization, day 14: 91.9 (25.7) %
[4]; day 14, of 20 burns
  % wounds completed reepithelialized, day 14: 90%
  No. wounds completed reepithelialized, day 14: 18
[4]; day 28, of 20 burns
  % contracted wounds, day 28: 35%
  No. contracted wounds, day 28: 7
[4]; [5]
  % deep scars, day 28: 10%
  No. deep scars, day 28: 2
[4]; partial-thickness burn, topical gel
  hair growth in treated wounds: exhibited hair growth
[4]; versus control vehicle, day 7
  Mean Difference (95% CI) in percent wound reepithelialization, day 7: 7.9 (−8.2-24.1)
[4]; versus control vehicle, day 10
  Mean Difference (95% CI) in percent wound reepithelialization, day 10: 20.9 (−6.1-48.0)
[4]; versus control vehicle, day 14
  Mean Difference (95% CI) in percent wound reepithelialization, day 14: 19.5 (−2.5-41.5)
